Assay results as given in article PMC3358306 (PLoS ONE, 2012).

Target: T1, afRio1 (Rio1 kinase) (Archaeoglobus fulgidus, UniProt O28471)
T1 construct: full-length
Experiment: thermal shift (Thermofluor), Tm […] to […] °C
Type: binding

T1 sequence (O28471 whole entry): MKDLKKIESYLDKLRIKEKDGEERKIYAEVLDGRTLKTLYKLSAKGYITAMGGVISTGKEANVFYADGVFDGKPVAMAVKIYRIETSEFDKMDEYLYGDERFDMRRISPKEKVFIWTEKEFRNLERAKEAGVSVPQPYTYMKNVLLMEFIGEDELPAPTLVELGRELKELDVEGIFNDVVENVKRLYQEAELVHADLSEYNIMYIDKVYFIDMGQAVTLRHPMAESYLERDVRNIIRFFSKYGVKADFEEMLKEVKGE

NC(=O)c1cn([C@@H]2O[C@H](CO)[C@@H](O)[C@H]2O)c2ncnc(N)c12 [sangivamycin]
thermal shift (Thermofluor), Tm 76 to 82 °C: 82 °C
